Patent publication US10835532B2, “Muscarinic agonists as cognitive enhancers” (The University of Toledo, priority 2008, dated 2020)

How the values were obtained:
[1] = Messer et al. 2002; cited from earlier work
[2] = target: T1, M1 receptors (Homo sapiens, UniProt P11229); assay: PI metabolism in A9 L cells expressing M1 receptors; format: cell-based; conditions: M1 receptors expressed in A9 L cells
T1 construct: expressed in transfected cells; host or cells: A9 L cells
T1 sequence (P11229 1-460): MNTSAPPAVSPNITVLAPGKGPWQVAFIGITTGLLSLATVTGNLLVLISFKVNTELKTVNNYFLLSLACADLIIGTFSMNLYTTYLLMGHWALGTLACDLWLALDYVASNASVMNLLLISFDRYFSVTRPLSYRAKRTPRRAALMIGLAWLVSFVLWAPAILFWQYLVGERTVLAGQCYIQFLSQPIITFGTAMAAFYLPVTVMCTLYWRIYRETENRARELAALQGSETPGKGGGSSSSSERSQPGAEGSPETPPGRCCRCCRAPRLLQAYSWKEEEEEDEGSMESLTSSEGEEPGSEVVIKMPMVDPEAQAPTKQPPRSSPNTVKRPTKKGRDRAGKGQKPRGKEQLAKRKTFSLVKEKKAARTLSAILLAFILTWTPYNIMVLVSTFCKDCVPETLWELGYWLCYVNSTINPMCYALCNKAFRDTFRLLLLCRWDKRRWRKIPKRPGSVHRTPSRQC
Protocol: (§1) The observed functional selectivity of CDD-0102A is unique among compounds purported to be selective M1 agonists. […] The lack of selectivity likely contributes to the high incidence of adverse effects observed when the compounds are administered to humans. To assess selectivity for muscarinic receptors, the ability of CDD-0102A to activate responses was compared with the nonselective, full agonist carbachol at each muscarinic receptor subtype. In cultured cell lines expressing individual muscarinic receptor subtypes, phosphoinositide (PI) metabolism studies assessed activity at M1, M3 and M5 receptors, while measures of cAMP levels examined M2 and M4 receptor activity. […] CDD-0102 was not active when M5 receptors were expressed at low levels in A9 L cells. […] Thus, CDD-0102 is a functionally-selective M1 agonist with weaker activity at M5 receptors, very weak activity at M3 receptor and no activity at M2 or M4 receptors.

[3] = target: T2, M2 receptors (Homo sapiens, UniProt P08172); assay: Inhibition of adenylyl cyclase activity (cAMP levels) in A9 L cells expressing M2 receptors; format: cell-based
T2 construct: expressed in transfected cells; host or cells: A9 L cells
T2 sequence (P08172 1-466): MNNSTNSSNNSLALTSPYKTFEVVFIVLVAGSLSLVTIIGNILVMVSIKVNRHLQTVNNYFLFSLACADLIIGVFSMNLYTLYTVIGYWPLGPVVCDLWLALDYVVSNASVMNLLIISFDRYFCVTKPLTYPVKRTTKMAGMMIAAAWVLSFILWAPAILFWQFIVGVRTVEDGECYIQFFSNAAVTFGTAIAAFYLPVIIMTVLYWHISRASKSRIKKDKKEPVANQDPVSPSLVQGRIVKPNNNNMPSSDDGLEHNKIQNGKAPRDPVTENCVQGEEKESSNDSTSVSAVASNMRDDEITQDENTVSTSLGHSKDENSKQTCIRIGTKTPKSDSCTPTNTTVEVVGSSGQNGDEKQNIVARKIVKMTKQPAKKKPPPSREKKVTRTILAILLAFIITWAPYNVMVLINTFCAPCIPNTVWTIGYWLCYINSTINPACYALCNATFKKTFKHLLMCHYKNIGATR
Protocol: as §1

[4] = system: rats with impaired cholinergic function; conditions: Messer et al. 2002; cited from earlier work
[5] = target: T3, M3 receptors (Homo sapiens, UniProt P20309); assay: PI metabolism in A9 L cells expressing M3 receptors; format: cell-based; conditions: M3 receptors expressed in A9 L cells
T3 construct: expressed in transfected cells; host or cells: A9 L cells
T3 sequence (P20309 whole entry): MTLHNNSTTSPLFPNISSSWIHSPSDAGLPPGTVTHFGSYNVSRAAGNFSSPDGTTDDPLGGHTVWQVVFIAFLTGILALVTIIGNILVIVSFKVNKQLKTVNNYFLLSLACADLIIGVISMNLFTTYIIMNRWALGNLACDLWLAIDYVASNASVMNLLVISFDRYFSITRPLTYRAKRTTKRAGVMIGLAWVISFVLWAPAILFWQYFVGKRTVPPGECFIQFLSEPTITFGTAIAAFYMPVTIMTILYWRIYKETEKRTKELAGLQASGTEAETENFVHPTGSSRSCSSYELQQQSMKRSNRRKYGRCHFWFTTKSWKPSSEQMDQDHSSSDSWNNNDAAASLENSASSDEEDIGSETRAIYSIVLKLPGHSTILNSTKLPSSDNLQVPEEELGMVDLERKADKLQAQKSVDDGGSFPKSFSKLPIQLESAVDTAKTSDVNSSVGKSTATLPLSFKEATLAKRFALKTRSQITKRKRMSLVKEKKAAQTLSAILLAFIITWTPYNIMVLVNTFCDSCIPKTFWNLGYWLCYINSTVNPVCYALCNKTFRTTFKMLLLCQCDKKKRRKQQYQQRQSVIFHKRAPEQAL
Protocol: as §1

[6] = target: T4, M4 receptors (Homo sapiens, UniProt P08173); assay: Inhibition of adenylyl cyclase activity (cAMP levels) in CHO cells expressing M4 receptors; format: cell-based
T4 construct: expressed in transfected cells; host or cells: CHO cells
T4 sequence (P08173 1-479): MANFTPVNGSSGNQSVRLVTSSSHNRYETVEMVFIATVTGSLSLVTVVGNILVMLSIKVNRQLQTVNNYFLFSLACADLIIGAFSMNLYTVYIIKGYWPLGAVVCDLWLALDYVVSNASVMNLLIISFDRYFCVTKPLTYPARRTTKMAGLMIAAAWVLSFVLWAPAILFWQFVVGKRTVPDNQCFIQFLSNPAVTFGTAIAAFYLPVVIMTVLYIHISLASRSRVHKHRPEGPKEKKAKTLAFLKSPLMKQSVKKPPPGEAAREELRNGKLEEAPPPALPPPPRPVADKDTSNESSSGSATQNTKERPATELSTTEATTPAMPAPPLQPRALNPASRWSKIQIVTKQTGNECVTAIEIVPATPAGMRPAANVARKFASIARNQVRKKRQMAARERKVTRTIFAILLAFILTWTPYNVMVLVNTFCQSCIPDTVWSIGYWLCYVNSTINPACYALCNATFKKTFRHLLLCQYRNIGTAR
Protocol: as §1

[7] = target: T5, M5 receptors (Homo sapiens, UniProt P08912); assay: PI metabolism in A9 L cells expressing M5 receptors; format: cell-based
T5 construct: expressed in transfected cells; host or cells: A9 L cells
T5 sequence (P08912 1-532): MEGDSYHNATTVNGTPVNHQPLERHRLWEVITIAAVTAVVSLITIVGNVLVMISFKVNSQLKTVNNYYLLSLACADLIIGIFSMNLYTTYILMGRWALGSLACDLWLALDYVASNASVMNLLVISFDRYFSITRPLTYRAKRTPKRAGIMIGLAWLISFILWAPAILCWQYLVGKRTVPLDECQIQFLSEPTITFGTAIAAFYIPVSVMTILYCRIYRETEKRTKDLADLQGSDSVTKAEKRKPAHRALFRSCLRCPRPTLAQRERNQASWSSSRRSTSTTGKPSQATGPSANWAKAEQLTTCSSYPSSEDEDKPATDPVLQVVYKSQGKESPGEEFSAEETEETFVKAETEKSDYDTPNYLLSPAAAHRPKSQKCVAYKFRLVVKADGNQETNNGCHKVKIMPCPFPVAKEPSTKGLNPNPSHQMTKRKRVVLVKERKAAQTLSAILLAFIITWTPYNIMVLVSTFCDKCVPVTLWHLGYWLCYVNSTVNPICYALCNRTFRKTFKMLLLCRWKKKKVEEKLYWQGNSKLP
Protocol: as §1

[8] = read-out: EC50, stimulation of PI metabolism

Question: For CCc1noc(C2CN=CNC2)n1 (centres unmarked) [CDD-0102, 5-(3-ethyl-1,2,4-oxadiazol-5-yl)-1,4,5,6-tetrahydropyrimidine], which “Side effect profile in vivo” value [1] is on record?
Answer: The value was “low side effect profile”.

Question: What about the EC50 [2, 8] of the same compound?
Answer: The EC50 was 13 µM.

Question: What about the “PI metabolism, % of the carbachol response” value (“PI metabolism, %” below) ([2]; relative to full agonist carbachol) of the same compound?
Answer: The value was 46%.

Question: And the “Inhibition of adenylyl cyclase activity” value [3]?
Answer: The value was “inactive”.

Question: What about the Memory deficits [4] of the same compound?
Answer: The Memory deficits was “reverses memory deficits”.

Question: And the EC50 [5, 8]?
Answer: The EC50 was 10 µM.

Question: What about the “PI metabolism, %” value ([5]; relative to carbachol) of the same compound?
Answer: The value was 6.6%.

Question: What about the “Inhibition of adenylyl cyclase activity” value [6] of the same compound?
Answer: The value was “inactive”.

Question: What about the “Activity in PI metabolism” value ([7]; M5 receptors expressed at low levels in A9 L cells) of the same compound?
Answer: The value was “not active”.

Question: And the EC50 ([7]; higher levels of M5 receptor expression in A9 L cells, read-out: EC50, stimulation of PI metabolism)?
Answer: Its EC50 is 7.5 µM.

Question: And the “PI metabolism, %” value ([7]; higher levels of M5 receptor expression in A9 L cells, relative to carbachol)?
Answer: The value was 28%.
